The subject of data set [1] is MDA-MB-468 (triple negative breast cancer). The experiment in a line: Antiproliferative assay on MDA-MB-468 cells (AlamarBlue, 96 h). It is filed as cell-based. Conditions: Homo sapiens, mean value from several measurements.
Data set [2] addresses CDK7/Cyclin H/MNAT1 (Homo sapiens, UniProt P50613). As to the kind of experiment: Inhibition of CDK7/Cyclin H/MNAT1 kinase activity (ADP-Glo). It is filed as biochemical. The method in brief:
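ADP-Glo luminescence quantified ATP consumption after a 40-60 minute, 25° C. reaction with ATP plus CDKtide, Histone H1 or PDKtide, following a 10-minute compound–kinase preincubation in DTT-supplemented kinase buffer A. Compounds spanned 11 concentrations from 50 μM in 4-fold dilutions; IC50 fitted to a four-parameter model.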

Data set [3] relates to NCl-H82 (small cell lung cancer). The experiment in a line: Antiproliferative assay on NCl-H82 cells (AlamarBlue, 120 h). In kind it is cell-based. The conditions noted are these: mean value from several measurements. (In general: Alamar Blue is a resazurin reagent that responds to reducing activity.)
Data set [4] can be described thus: Passive membrane permeability through PAMPA artificial membrane, pH 7.4. In kind it is in vitro ADME. Conditions: pH 7.4, 10 μmol, 20 hours at room temperature, mean of multiple measurements, read-out: PAMPA passive permeability Pe. The method in brief:
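Compound at 10 μmol in 0.01 M phosphate buffer pH 7.4 placed in donor wells over lecithin-phospholipid-impregnated PVDF filter, buffer in acceptor; 20 h at room temperature. Donor and acceptor levels measured by RP-HPLC-UV; Pe (cm/s) and membrane retention R (%) calculated.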
For orientation: The PAMPA barrier holds no transporters, so it reflects passive diffusion.

Where [5] appears, read: mean of multiple measurement series, ATP 10 μM, read-out: CDK7/Cyclin H/MNAT1 IC50.
The mark [6] stands for this setting: mean value from several measurements, read-out: IC50 CDK7/Cyclin H/MNAT.

Like-named read-outs stand apart in the source and are kept apart here.

Sequence of CDK7/Cyclin H/MNAT1 (P50613 whole entry): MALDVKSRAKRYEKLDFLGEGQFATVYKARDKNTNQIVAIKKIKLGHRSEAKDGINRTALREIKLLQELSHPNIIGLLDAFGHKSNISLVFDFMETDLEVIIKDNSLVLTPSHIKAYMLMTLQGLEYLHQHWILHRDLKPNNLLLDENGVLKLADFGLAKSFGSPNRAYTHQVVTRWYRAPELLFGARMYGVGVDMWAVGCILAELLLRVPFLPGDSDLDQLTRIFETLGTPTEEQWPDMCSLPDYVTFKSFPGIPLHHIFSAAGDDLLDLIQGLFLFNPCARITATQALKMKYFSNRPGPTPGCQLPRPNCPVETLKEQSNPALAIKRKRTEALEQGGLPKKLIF
Sequence of CDK7/Cyclin H/MNAT1 (P51946 whole entry partner): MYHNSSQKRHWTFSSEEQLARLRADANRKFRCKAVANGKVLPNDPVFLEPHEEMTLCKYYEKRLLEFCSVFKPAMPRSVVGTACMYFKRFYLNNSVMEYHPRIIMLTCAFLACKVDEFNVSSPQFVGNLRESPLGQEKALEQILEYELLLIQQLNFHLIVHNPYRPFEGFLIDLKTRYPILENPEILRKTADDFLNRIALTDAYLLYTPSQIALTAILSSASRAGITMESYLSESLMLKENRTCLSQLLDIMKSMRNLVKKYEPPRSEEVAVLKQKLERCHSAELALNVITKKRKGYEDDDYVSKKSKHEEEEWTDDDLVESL
Sequence of CDK7/Cyclin H/MNAT1 (P51948 whole entry partner): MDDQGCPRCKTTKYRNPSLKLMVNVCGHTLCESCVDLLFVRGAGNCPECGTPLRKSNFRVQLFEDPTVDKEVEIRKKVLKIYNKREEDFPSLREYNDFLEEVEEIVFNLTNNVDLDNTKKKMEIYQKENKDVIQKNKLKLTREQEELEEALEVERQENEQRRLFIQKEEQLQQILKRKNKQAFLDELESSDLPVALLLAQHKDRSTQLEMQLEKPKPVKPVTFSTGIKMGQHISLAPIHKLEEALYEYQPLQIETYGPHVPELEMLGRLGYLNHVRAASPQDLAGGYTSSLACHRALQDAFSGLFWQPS

As to `O=c1c2[nH]cc(-c3nc(N[C@H]4CCCNC4)ncc3C(F)(F)F)c2ccn1Cc1ccccc1` [CDK7_961, 6-benzyl-3-(2-{[(3S)-piperidin-3-yl]amino}-5-(trifluoromethyl)py-rimidin-4-yl)-1H,6H,7H-pyrrolo[2,3-c]pyridin-7-one], the IC50 in data set [1] is under 10 nM; in data set [2] (setting [5]) it was under 5 nM; in data set [2] (setting [6]) it was under 5 nM; in data set [3], under 10 nM. Besides, in data set [4], the Papp at 20 h, 10 μmol fell in the range of 1 to 5 ×10⁻⁶ cm/s.

For the molecule `CC(C)N1CCCc2c(-c3nc(N[C@H]4CCC(C)(C)NC4)ncc3C(F)(F)F)c[nH]c2C1=O` [CDK7_1229, 3-(2-{[(3S)-6,6-dimethylpiperidin-3-yl]amino}-5-(trifluoromethyl)py-rimidin-4-yl)-7-(propan-2-yl)-1H,4H,5H,6H,7H, 8H-pyrrolo[2,3-c]azepin-8-one], the IC50 was 10 to 100 nM in data set [1], under 5 nM in data set [2] (setting [5]), under 5 nM in data set [2] (setting [6]) and 10 to 100 nM in data set [3]. The Papp at 20 h, 10 μmol in data set [4] is 5 to 10 ×10⁻⁶ cm/s.

For `CC(C)N1CCCc2c(-c3nc(N[C@H]4CCC5(CC5)NC4)ncc3C(F)(F)F)c[nH]c2C1=O` [CDK7_1277, 3-(2-{[(6S)-4-azaspiro[2.5]octan-6-yl]amino}-5-(trifluoromethyl)py-rimidin-4-yl)-7-(propan-2-yl)-1H,4H,5H,6H,7H, 8H-pyrrolo[2,3-c]azepin-8-one], the IC50 was under 10 nM in data set [1], under 5 nM in data set [2] (setting [5]), under 5 nM in data set [2] (setting [6]) and under 10 nM in data set [3]. Moreover, in data set [4], the Papp at 20 h, 10 μmol fell in the range of 5 to 10 ×10⁻⁶ cm/s.

As for `Cn1cc(-n2ccc3c(-c4nc(N[C@H]5CCCNC5)ncc4C(F)(F)F)c[nH]c3c2=O)cn1` [CDK7_959, 6-(1-methyl-1H-pyrazol-4-yl)-3-(2-{[(3S)-piperidin-3-yl]amino}-5-(trifluoromethyl)py-rimidin-4-yl)-1H,6H,7H-pyrrolo[2,3-c]pyridin-7-one], the IC50 is under 10 nM in data set [1], under 5 nM in data set [2] (setting [5]), under 5 nM in data set [2] (setting [6]) and under 10 nM in data set [3]. Also, in data set [4], the Papp at 20 h, 10 μmol was under 1 ×10⁻⁶ cm/s.

On to `Cn1cc(N2CCCc3c(-c4nc(N[C@H]5CCC(C)(C)NC5)ncc4C(F)(F)F)c[nH]c3C2=O)cn1` [CDK7_1122, 3-(2-{[(3S)-6,6-dimethylpiperidin-3-yl]amino}-5-(trifluoromethyl)py-rimidin-4-yl)-7-(1-methyl-1H-pyrazol-4-yl)-1H,4H,5H,6H,7H, 8H-pyrrolo[2,3-c]azepin-8-one], for which the values for the IC50 in data set [1] and in data set [2] (setting [6]) were 100 to 1000 nM and 5 to 50 nM, respectively. The Papp at 20 h, 10 μmol in data set [4] fell in the range of 1 to 5 ×10⁻⁶ cm/s.

Regarding `O=C1c2[nH]cc(-c3nc(N[C@H]4CCCNC4)ncc3C(F)(F)F)c2CCCN1c1ccccn1` [CDK7_1176, 3-(2-{[(3S)-piperidin-3-yl]amino}-5-(trifluoromethyl)py-rimidin-4-yl)-7-(pyridin-2-yl)-1H,4H,5H,6H,7H, 8H-pyrrolo[2,3-c]azepin-8-one], the IC50 was in the range of 100 to 1000 nM in data set [1] and 5 to 50 nM in data set [2] (setting [6]). Also, the Papp at 20 h, 10 μmol in data set [4] fell in the range of 1 to 5 ×10⁻⁶ cm/s.

Consider `O=C1c2[nH]cc(-c3nc(NC4CCCNC4)ncc3C(F)(F)F)c2CCCN1c1nccs1` (stereo not drawn) [CDK7_1172], for which the IC50 was 10 to 100 nM in data set [1], under 5 nM in data set [2] (setting [6]) and 10 to 100 nM in data set [3]. Moreover, the Papp at 20 h, 10 μmol in data set [4] lay within 1 to 5 ×10⁻⁶ cm/s.

As to `O=C1c2[nH]cc(-c3nc(N[C@H]4CCC5(CC5)NC4)ncc3C(F)(F)F)c2CCCN1C1CC1` [CDK7_1276, 3-(2-{[(6S)-4-azaspiro[2.5]octan-6-yl]amino}-5-(trifluoromethyl)py-rimidin-4-yl)-7-cyclopropyl-1H,4H,5H,6H,7H, 8H-pyrrolo[2,3-c]azepin-8-one], the IC50 in data set [1] was under 10 nM; in data set [2] (setting [5]) it was under 5 nM; in data set [2] (setting [6]) it was under 5 nM; in data set [3], under 10 nM. Also, in data set [4], the Papp at 20 h, 10 μmol lay in the range of 5 to 10 ×10⁻⁶ cm/s.

Take `O=C1c2[nH]cc(-c3nc(NC4CCCNC4)ncc3C(F)(F)F)c2CCCN1C1CC1` (stereo not drawn) [CDK7_1188]: the IC50 in data set [1] is under 10 nM; in data set [2] (setting [6]), under 5 nM; in data set [3] it was under 10 nM. Besides, the Papp at 20 h, 10 μmol in data set [4] lay in the range of 1 to 5 ×10⁻⁶ cm/s.

Regarding `CC1(C)CC[C@H](Nc2ncc(C(F)(F)F)c(-c3c[nH]c4c3CCCN(CC3CC3)C4=O)n2)CN1` [CDK7_1227, 7-(cyclopropylmeth-yl)-3-(2-{[(3S)-6,6-dimethylpiperidin-3-yl]amino}-5-(trifluoromethyl)py-rimidin-4-yl)-1H,4H,5H,6H,7H, 8H-pyrrolo[2,3-c]azepin-8-one], the figures for the IC50 in data set [1], in data set [2] (setting [6]) and in data set [3] were 10 to 100 nM, under 5 nM and 10 to 100 nM, respectively. In addition, in data set [4], the Papp at 20 h, 10 μmol lay in the range of 5 to 10 ×10⁻⁶ cm/s.

With `Cn1cc(N2CCCc3c(-c4nc(N[C@H]5CCCNC5)ncc4C(F)(F)F)c[nH]c3C2=O)cn1` [CDK7_955, 7-(1-methyl-1H-pyrazol-4-yl)-3-(2-{[(3S)-piperidin-3-yl]amino}-5-(trifluoromethyl)py-rimidin-4-yl)-1H,4H,5H,6H,7H, 8H-pyrrolo[2,3-c]azepin-8-one], the IC50 is 100 to 1000 nM in data set [1], 5 to 50 nM in data set [2] (setting [6]) and over 1000 nM in data set [3]. For the same molecule, the Papp at 20 h, 10 μmol in data set [4] is under 1 ×10⁻⁶ cm/s.

Turning to `CN1CCCc2c(-c3nc(N[C@H]4CCCNC4)ncc3C(F)(F)F)c[nH]c2C1=O` [CDK7_953, 7-methyl-3-(2-{[(3S)-piperidin-3-yl]amino}-5-(trifluoromethyl)py-rimidin-4-yl)-1H,4H,5H,6H,7H, 8H-pyrrolo[2,3-c]azepin-8-one], the IC50 in data set [1] is under 10 nM; in data set [2] (setting [5]), under 5 nM; in data set [2] (setting [6]) it was under 5 nM; in data set [3], under 10 nM. The Papp at 20 h, 10 μmol in data set [4] fell in the range of 1 to 5 ×10⁻⁶ cm/s.

Turning to `Cn1cc(-n2ccc3c(-c4nc(N[C@H]5CCC(C)(C)NC5)ncc4C(F)(F)F)c[nH]c3c2=O)cn1` [CDK7_1123, 3-(2-{[(3S)-6,6-dimethylpiperidin-3-yl]amino}-5-(trifluoromethyl)py-rimidin-4-yl)-6-(1-methyl-1H-pyrazol-4-yl)-1H,6H,7H-pyrrolo[2,3-c]pyridin-7-one], the IC50 in data set [1] is under 10 nM; in data set [2] (setting [5]) it was under 5 nM; in data set [2] (setting [6]) it was under 5 nM; in data set [3], 10 to 100 nM. Besides, in data set [4], the Papp at 20 h, 10 μmol is under 1 ×10⁻⁶ cm/s.

In the case of `CN1CCCc2c(-c3nc(N[C@H]4CCC(C)(C)NC4)ncc3C(F)(F)F)c[nH]c2C1=O` [CDK7_1187, 3-(2-{[(3S)-6,6-dimethylpiperidin-3-yl]amino}-5-(trifluoromethyl)py-rimidin-4-yl)-7-methyl-1H,4H,5H,6H,7H, 8H-pyrrolo[2,3-c]azepin-8-one], the IC50 in data set [1] is under 10 nM; in data set [2] (setting [5]), under 5 nM; in data set [2] (setting [6]), under 5 nM; in data set [3], under 10 nM. Moreover, the Papp at 20 h, 10 μmol in data set [4] was in the range of 1 to 5 ×10⁻⁶ cm/s.

For `CC1(C)CC[C@H](Nc2ncc(C(F)(F)F)c(-c3c[nH]c4c3CCCN(C3CC3)C4=O)n2)CN1` [CDK7_1225, 7-cyclopropyl-3-(2-{[(3S)-6,6-dimethylpiperidin-3-yl]amino}-5-(trifluoromethyl)py-rimidin-4-yl)-1H,4H,5H,6H,7H, 8H-pyrrolo[2,3-c]azepin-8-one], the IC50 in data set [1] is 10 to 100 nM; in data set [2] (setting [5]), under 5 nM; in data set [2] (setting [6]), under 5 nM; in data set [3], 10 to 100 nM. For the same molecule, the Papp at 20 h, 10 μmol in data set [4] lay in the range of 1 to 5 ×10⁻⁶ cm/s.

As for `CCN1CCCc2c(-c3nc(N[C@H]4CCC(C)(C)NC4)ncc3C(F)(F)F)c[nH]c2C1=O` [CDK7_1259, 3-(2-{[(3S)-6,6-dimethylpiperidin-3-yl]amino}-5-(trifluoromethyl)py-rimidin-4-yl)-7-ethyl-1H,4H,5H,6H,7H, 8H-pyrrolo[2,3-c]azepin-8-one], the figures for the IC50 in data set [1], in data set [2] (setting [6]) and in data set [3] were 10 to 100 nM, under 5 nM and 10 to 100 nM, respectively. Moreover, the Papp at 20 h, 10 μmol in data set [4] was in the range of 1 to 5 ×10⁻⁶ cm/s.

On to `CC1CCc2c(-c3nc(N[C@H]4CCCNC4)ncc3C(F)(F)F)c[nH]c2C(=O)N1C` (stereo partly drawn) [CDK7_1254, 6,7-dimethyl-3-(2-{[(3S)-piperidin-3-yl]amino}-5-(trifluoromethyl)py-rimidin-4-yl)-1H,4H,5H,6H,7H, 8H-pyrrolo[2,3-c]azepin-8-one], for which the IC50 was 10 to 100 nM in data set [1], under 5 nM in data set [2] (setting [6]) and 10 to 100 nM in data set [3]. The Papp at 20 h, 10 μmol in data set [4] was 1 to 5 ×10⁻⁶ cm/s.

Source of the values: patent US20260137698A1, “CYCLIN-DEPENDENT KINASE 7 INHIBITORS” (JOINT STOCK COMPANY «BIOCAD», priority 2022, published 2026).
